How the values were obtained:
[1] = test system: IL-4 stimulated expression of CD23 in human Ramos B cells (JAK-1 and JAK-3); test: Assay for Ramos B-Cell Line Stimulated with IL-4 (CD23 upregulation, FACS); type: cell-based; settings: Ramos B-cell line stimulated with IL-4; CD23 expression by FACS; read-out: IC50, Example 41
Outline: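 Steps: Ramos B cells are suspended in RPMI with 5% serum, exposed to compound for 1 h at 37 °C, stimulated with IL-4 (final 50 units/mL) for 20-24 h, stained for CD23 and analysed by flow cytometry. IC50 is calculated.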

[2] = test system: Primary human T-cells; test: Primary Human T-Cell Proliferation Assay Stimulated with IL-2 (CellTiter-Glo); type: cell-based; settings: primary human T-cell proliferation stimulated with IL-2; read-out: IC50, Example 42
Outline: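 IC50 derived from CellTiter-Glo ATP signal after 72 hours of IL-2-driven proliferation at 37° C. Cells: primary human T-cells from blood, stimulated beforehand 3-4 days on anti-CD3/anti-CD28 with IL-2, then rested from IL-2 before compound exposure in duplicate; IL-2-free wells served as unstimulated control.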

IC50 [1] | Compound | IC50 [2]
95.4 nM | N#CCCc1ccc(Nc2nc(Nc3cccc(S(N)(=O)=O)c3)ncc2F)cc1C(F)(F)F [III-31, N4-(4-Cyanoethylene-3-trifluoromethylphenyl)-5-fluoro-N2-(3-aminosulfonylphenyl)-2,4-pyrimidinediamine] | 328 nM
84 nM | Cc1ccc(Nc2ncc(F)c(Nc3ccc(OC4CCCN(C)C4)c(Cl)c3)n2)cc1S(N)(=O)=O (racemic) [II-3, Racemic N2-(3-aminosulfonyl-4-methylphenyl)-N4-{3-chloro-4-[(1-methylpiperidin-3-yl)oxy]phenyl}-5-fluoro-2,4-pyrimidinediamine] | 918 nM
369 nM | Cc1ccc(Nc2ncc(F)c(Nc3ccc(OC4CCN(C)C4)cc3)n2)cc1S(N)(=O)=O (centres unmarked) [II-10, N2-(3-Aminosulfonyl-4-methylphenyl)-5-fluoro-N4-(N-methylpyrrolidin-3-yloxyphenyl)-2,4-pyrimidinediamine] | 876 nM
202 nM | CCN(CC)CCNS(=O)(=O)c1ccc(Nc2ncc(F)c(Nc3ccc(OCc4cc(C)on4)c(C)c3)n2)cc1 [Compound I-245, N2-[4-(2-N,N-Diethylaminoethyl)aminosulfonylphenyl)-5-fluoro-N4-[3-methyl-4-(5-methylisoxazol-3-yl)methyleneoxyphenyl]-2,4-pyrimidinediamine] | 1740 nM
18.7 nM | N#CCc1ccc(Nc2nc(Nc3cccc(S(N)(=O)=O)c3)ncc2F)cc1 [III-4, N2-(3-Aminosulfonyl)phenyl-N4-(4-cyanomethyl)phenyl-5-fluoro-2,4-pyrimidinediamine] | 171 nM
285 nM | CCN(CC)CCNS(=O)(=O)c1cccc(Nc2ncc(F)c(Nc3ccc(OCc4cc(C)on4)c(C)c3)n2)c1 [Compound I-244, N2-[3-(2-N,N-Diethylaminoethyl)aminosulfonylphenyl)-5-fluoro-N4-[3-methyl-4-(5-methylisoxazol-3-yl)methyleneoxyphenyl]-2,4-pyrimidinediamine] | 1410 nM
316 nM | Cc1ccc(Nc2ncc(F)c(Nc3ccc(OC4CCCN(C)C4)cc3)n2)cc1S(N)(=O)=O (racemic) [II-4, Racemic N2-(3-aminosulfonyl-4-methylphenyl)-5-fluoro-N4-{4-[(1-methylpiperidin-3-yl)oxy]phenyl}-2,4-pyrimidinediamine] | 2370 nM
136 nM | CCN(CC)CCNS(=O)(=O)c1ccc(Nc2ncc(F)c(Nc3ccc(OCc4csc(C)n4)cc3)n2)cc1 [Compound I-284, N2-[4-(2-N,N-Diethylaminoethyl)aminosulfonylphenyl)-5-fluoro-N4-[4-(2-methylthizol-4-yl)methyleneoxyphenyl]-2,4-pyrimidinediamine] | 421 nM
282 nM | CCN(CC)CCNS(=O)(=O)c1ccc(Nc2ncc(F)c(Nc3cccc(OCc4nc(C)no4)c3)n2)cc1 [Compound I-256, N2-[4-(2-N,N-Diethylaminoethyl)aminosulfonylphenyl)-5-fluoro-N4-[3-(3-methyl-1,2,4-oxadiazol-5-yl)methyleneoxyphenyl]-2,4-pyrimidinediamine] | 38200 nM
138 nM | N#CCc1ccc(Nc2nc(Nc3ccc(Cl)c(S(N)(=O)=O)c3)ncc2F)cc1 [III-8, N2-(3-Aminosulfonyl-4-chloro)phenyl-N4-(4-cyanomethyl)phenyl-5-fluoro-2,4-pyrimidinediamine] | 921 nM
388 nM | Cc1cc(COc2ccc(Nc3nc(Nc4cccc(S(=O)(=O)N(Cc5oc(=O)oc5C)Cc5oc(=O)oc5C)c4)ncc3F)cc2)no1 [Compound I-248, N2-{3-[N-N-Di-[(5-Methyl-1,3-dioxolene-2-one-4-yl)methylene]]aminosulfonylphenyl}-5-fluoro-N4-[4-(5-methylisoxazol-3-yl)methyleneoxyphenyl]-2,4-pyrimidinediamine] | 138 nM
85.1 nM | Cc1noc(COc2ccc(Nc3nc(Nc4ccc(F)c(S(N)(=O)=O)c4)ncc3F)cc2)n1 [Compound I-266, N2-(3-Aminosulfonyl-4-fluorophenyl)-5-fluoro-N4-[4-(3-methyl-1,2,4-oxadiazol-5-yl)methyleneoxyphenyl]-2,4-pyrimidinediamine] | 201 nM
223 nM | Cc1nc(COc2ccc(Nc3nc(Nc4ccc(S(N)(=O)=O)cc4)ncc3F)cc2)no1 [Compound I-275, N2-(4-Aminosulfonyl)phenyl-5-fluoro-N4-[4-(5-methyl-1,2,4-oxadiazol-3-yl)methoxy]phenyl-2,4-pyrimidinediamine] | 577 nM
151 nM | Cc1nnc(COc2ccc(Nc3nc(Nc4cccc(S(N)(=O)=O)c4)ncc3F)cc2)o1 [Compound I-277, N2-(3-aminosulfonylphenyl)-5-fluoro-N4-[4-(5-methyl-1,3,4-oxadiazol-2-yl)methyleneoxyphenyl]-2,4-pyrimidinediamine] | 91.5 nM

More lines, now with the values behind:

Compound | IC50 [1] | IC50 [2]
Cc1cc(COc2ccc(Nc3nc(Nc4cc(Cl)c(C)c(S(N)(=O)=O)c4)ncc3F)cc2C)no1 [Compound I-216, N2-(3-Aminosulfonyl-5-chloro-4-methylphenyl)-5-fluoro-N4-[3-methyl-4-(5-methylisoxazol-3-yl)methyleneoxyphenyl]-2,4-pyrimidinediamine] | 205 nM | 493 nM
Cc1cc(Nc2nc(Nc3ccc(S(N)(=O)=O)cc3)ncc2F)ccc1OCC#N [Compound I-22, N2-(4-Aminosulfonyl)phenyl-N4-(4-cyanomethoxy-3-methyl)phenyl-5-fluoro-2,4-pyrimidinediamine] | 236 nM | 944 nM
Cc1cc(COc2ccc(Nc3nc(Nc4cccc(S(N)(=O)=O)c4)ncc3F)cc2C)no1 [Compound I-238, N2-(3-Aminosulfonylphenyl)-5-fluoro-N4-[3-methyl-4-(5-methylisoxazol-3-yl)methyleneoxyphenyl]-2,4-pyrimidinediamine] | 165 nM | 456 nM
N#CCOc1ccc(Nc2nc(Nc3ccc(Cl)c(S(N)(=O)=O)c3)ncc2F)cc1 [Compound I-21, N2-(3-Aminosulfonyl-4-chlorophenyl)-N4-(4-cyanomethoxy)phenyl-5-fluoro-2,4-pyrimidinediamine] | 93 nM | 258 nM
Cc1cc(COc2ccc(Nc3nc(Nc4cc(C)c(F)c(S(N)(=O)=O)c4)ncc3F)cc2)no1 [Compound I-217, N2-(3-Aminosulfonyl-4-fluoro-5-methylphenyl)-5-fluoro-N4-[4-(5-methylisoxazol-3-yl)methyleneoxyphenyl]-2,4-pyrimidinediamine] | 25 nM | 217 nM
Cc1noc(COc2ccc(Nc3nc(Nc4ccc(S(N)(=O)=O)cc4)ncc3F)cc2)n1 [Compound I-231, N2-(4-Aminosulfonylphenyl)-5-fluoro-N4-[4-(3-methyl-1,2,4-oxadiazol-5-yl)methyleneoxyphenyl]-2,4-pyrimidinediamine] | 94.7 nM | 290 nM
N2-[3-Aminosulfonyl-4-(4-methylpiperazin-1-yl)phenyl]-5-fluoro-N4-[2-fluoro-4-(5-methylisoxazol-3-yl)methyleneoxyphenyl]-2,4-pyrimidinediamine [Compound I-251] | 167 nM | 155 nM
5-Fluoro-N4-[4-(3-methyl-1,2,4-oxadiazol-3-yl)methyleneoxyphenyl]-N2-[(3-N-propanamido)sulfonylphenyl)]-2,4-pyrimidinediamine [Compound I-262] | 78.3 nM | 164 nM
COc1cc(Nc2ncc(F)c(Nc3ccc(OCC#N)cc3)n2)ccc1S(N)(=O)=O [Compound I-28, N2-(4-Aminosulfonyl-3-methoxyphenyl)-N4-(4-cyanomethoxy)phenyl-5-fluoro-2,4-pyrimidinediamine] | 64.5 nM | 560 nM
Cc1cc(COc2ccc(Nc3nc(Nc4cc(Cl)c(C)c(S(N)(=O)=O)c4)ncc3F)cc2F)no1 [Compound I-223, N2-(3-Aminosulfonyl-5-chloro-4-methylphenyl)-5-fluoro-N4-[3-fluoro-4-(5-methylisoxazol-3-yl)methyleneoxyphenyl]-2,4-pyrimidinediamine] | 88 nM | 625 nM
Cc1cc(COc2ccc(Nc3nc(Nc4ccc(C)c(S(N)(=O)=O)c4)ncc3F)cc2F)no1 [Compound I-222, N2-(3-Aminosulfonyl-4-methylphenyl)-5-fluoro-N4-[3-fluoro-4-(5-methylisoxazol-3-yl)methyleneoxyphenyl]-2,4-pyrimidinediamine] | 33.1 nM | 582 nM
CCN(CC)CCNS(=O)(=O)c1cccc(Nc2ncc(F)c(Nc3ccc(OCc4cc(C)on4)cc3)n2)c1 [Compound I-241, N2-[3-(2-N,N-Diethylaminoethyl)aminosulfonylphenyl)-5-fluoro-N4-[4-(5-methylisoxazol-3-yl)methyleneoxyphenyl]-2,4-pyrimidinediamine] | 266 nM | 442 nM
N#CCOc1ccc(Nc2nc(Nc3cccc(S(N)(=O)=O)c3)ncc2F)cc1 [Compound I-17, N2-(3-Aminosulfonyl)phenyl-N4-(4-cyanomethoxy)phenyl-5-fluoro-2,4-pyrimidinediamine] | 48.7 nM | 43.2 nM
CNS(=O)(=O)c1cc(Nc2ncc(F)c(Nc3ccc(OCc4cc(C)on4)cc3)n2)ccc1C [Compound I-235, 5-Fluoro-N2-[3-(N-methyl)aminosulfonyl-4-methylphenyl]-N4-[4-(5-methylisoxazol-3-yl)methyleneoxyphenyl]-2,4-pyrimidinediamine] | 178 nM | 470 nM
